Experimental data as given in PubChem BioAssay AID248 (DTP/NCI, 2004).
“And” between values parts separate entries of the source, which are not always exact repeats. Identical values can stand only once. Toxic doses and inconclusive results are not listed. Cut-off read from the data, not from the text of the source: active = T/C of 150% or more; inactive = T/C below 125%.

System: L1210 leukemia ip in BDF1 mice, survival T/C
Assay: NCI In Vivo Anticancer Drug Screen. Data for tumor model L1210 Leukemia (intraperitoneal) in B6D2F1 (BDF1) mice
Conditions: endpoint: mean survival time, higher = longer survival
How it was run: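 Read-out is survival time, reported as the treated-group measurement over the vehicle-control measurement.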

[1] = dose: 100.0 mg/kg/injection, schedule: Q04DX003 (ip), vehicle: saline with Tween-80
[2] = dose: 200.0 mg/kg/injection, schedule: Q04DX003 (ip), vehicle: saline with Tween-80
[3] = dose: 400.0 mg/kg/injection, schedule: Q04DX003 (ip), vehicle: saline with Tween-80

Measured: T/C

CN=C(NC)N/N=C(C)\C=N\NC(=NC)NC
inactive: dose: 1.0 mg/kg/injection, schedule: Q01DX Z (ip), vehicle: methylcellulose (MC) 103 % of control | dose: 2.0 mg/kg/injection, schedule: Q01DX Z (ip), vehicle: methylcellulose (MC) 92 % of control | dose: 4.0 mg/kg/injection, schedule: Q01DX Z (ip), vehicle: methylcellulose (MC) 101 % of control | dose: 8.0 mg/kg/injection, schedule: Q01DX Z (ip), vehicle: methylcellulose (MC) 104 % of control | dose: 15.0 mg/kg/injection, schedule: Q01DX Z (ip), vehicle: saline 107 % of control | dose: 15.0 mg/kg/injection, schedule: Q01DX Z (oral), vehicle: methylcellulose (MC) 104 % of control | dose: 30.0 mg/kg/injection, schedule: Q01DX Z (ip), vehicle: saline 97 % of control | dose: 30.0 mg/kg/injection, schedule: Q01DX Z (oral), vehicle: methylcellulose (MC) 96 % of control | dose: 60.0 mg/kg/injection, schedule: Q01DX Z (ip), vehicle: saline 103 % of control | dose: 60.0 mg/kg/injection, schedule: Q01DX Z (oral), vehicle: methylcellulose (MC) 107 % of control | dose: 120.0 mg/kg/injection, schedule: Q01DX Z (ip), vehicle: saline 96 % of control | dose: 120.0 mg/kg/injection, schedule: Q01DX Z (oral), vehicle: methylcellulose (MC) 104 % of control | dose: 240.0 mg/kg/injection, schedule: Q01DX Z (ip), vehicle: saline 100 % of control | dose: 240.0 mg/kg/injection, schedule: Q01DX Z (oral), vehicle: methylcellulose (MC) 95 % of control | dose: 480.0 mg/kg/injection, schedule: Q01DX009 (oral), vehicle: saline 94 % of control | dose: 480.0 mg/kg/injection, schedule: Q01DX Z (oral), vehicle: methylcellulose (MC) 96 % of control | dose: 960.0 mg/kg/injection, schedule: Q01DX009 (oral), vehicle: saline 94 % of control
active: dose: 30.0 mg/kg/injection, schedule: Q01DX Z (ip), vehicle: methylcellulose (MC) 160 % of control

CCCCCCCCCCCCCCCCOc1ccc(CC)cc1
inactive: dose: 100.0 mg/kg/injection, schedule: Q04DX003 (ip), vehicle: Klucel (hydroxypropylcellulose) (HPC) 91 % of control

O=C(O)c1c(Cl)c(-c2c(Cl)c(C(=O)O)c(Cl)c([N+](=O)[O-])c2Cl)c(Cl)c([N+](=O)[O-])c1Cl
inactive: dose: 100.0 mg/kg/injection, schedule: Q01DX009 (ip), vehicle: saline with Tween-80 96 % of control | dose: 200.0 mg/kg/injection, schedule: Q01DX009 (ip), vehicle: saline with Tween-80 96 % of control | dose: 400.0 mg/kg/injection, schedule: Q01DX009 (ip), vehicle: saline with Tween-80 93 % of control

CC(C)N(CCC#N)CN1C(=O)c2ccccc2C1=O
inactive: dose: 100.0 mg/kg/injection, schedule: Q01DX009 (ip), vehicle: Klucel (hydroxypropylcellulose) (HPC) 94 % of control | dose: 200.0 mg/kg/injection, schedule: Q01DX009 (ip), vehicle: Klucel (hydroxypropylcellulose) (HPC) 91 % of control

O=c1[nH]cc(Cc2ccc(O)cc2)c(=O)[nH]1
inactive: dose: 50.0 mg/kg/injection, schedule: Q01DX005 (ip), vehicle: saline with Tween-80 106 % of control | dose: 100.0 mg/kg/injection, schedule: Q01DX005 (ip), vehicle: saline with Tween-80 101 % of control | dose: 200.0 mg/kg/injection, schedule: Q01DX005 (ip), vehicle: saline with Tween-80 98 % of control | dose: 400.0 mg/kg/injection, schedule: Q01DX005 (ip), vehicle: saline with Tween-80 109 % of control

COc1cccc(CCOC(C)=O)c1
inactive: dose: 100.0 mg/kg/injection, schedule: Q04DX002 (ip), vehicle: saline with Tween-80 94 % of control | dose: 200.0 mg/kg/injection, schedule: Q04DX002 (ip), vehicle: saline with Tween-80 108 % of control | dose: 400.0 mg/kg/injection, schedule: Q04DX002 (ip), vehicle: saline with Tween-80 97 % of control

CCOC(=O)c1ccc(N)cc1
inactive: dose: 37.5 mg/kg/injection, schedule: Q01DX009 (ip), vehicle: saline with Tween-80 107 % of control | dose: 50.0 mg/kg/injection, schedule: Q01DX001 (ip), vehicle: saline with Tween-80 97 % of control | dose: 75.0 mg/kg/injection, schedule: Q01DX009 (ip), vehicle: saline with Tween-80 107 % of control | dose: 100.0 mg/kg/injection, schedule: Q01DX001 (ip), vehicle: saline with Tween-80 105 % of control | dose: 150.0 mg/kg/injection, schedule: Q01DX009 (ip), vehicle: saline with Tween-80 91 % of control | dose: 200.0 mg/kg/injection, schedule: Q01DX001 (ip), vehicle: saline with Tween-80 94 % of control

CCc1cc2oc(C)c(C)c2c2nc(C)oc12
inactive: dose: 50.0 mg/kg/injection, schedule: Q04DX002 (ip), vehicle: Klucel (hydroxypropylcellulose) (HPC) 101 % of control | dose: 100.0 mg/kg/injection, schedule: Q04DX002 (ip), vehicle: Klucel (hydroxypropylcellulose) (HPC) 99 % of control and 104 % of control | dose: 200.0 mg/kg/injection, schedule: Q04DX002 (ip), vehicle: Klucel (hydroxypropylcellulose) (HPC) 101 % of control | dose: 400.0 mg/kg/injection, schedule: Q04DX002 (ip), vehicle: Klucel (hydroxypropylcellulose) (HPC) 96 % of control

O=C1CCCCCCCCCC/C1=N/O
inactive: dose: 100.0 mg/kg/injection, schedule: Q01DX001 (ip), vehicle: Klucel (hydroxypropylcellulose) (HPC) 111 % of control | dose: 200.0 mg/kg/injection, schedule: Q01DX001 (ip), vehicle: Klucel (hydroxypropylcellulose) (HPC) 101 % of control | dose: 400.0 mg/kg/injection, schedule: Q01DX001 (ip), vehicle: Klucel (hydroxypropylcellulose) (HPC) 92 % of control

S=C(Nc1ccccc1)Sc1ccc(Cl)cc1
inactive: dose: 25.0 mg/kg/injection, schedule: Q04DX003 (ip), vehicle: saline with Tween-80 96 % of control | dose: 50.0 mg/kg/injection, schedule: Q04DX003 (ip), vehicle: saline with Tween-80 92 % of control | [1] 101 % of control

Cc1cccc(C)c1NC(=O)C(Cl)Cl
inactive: dose: 50.0 mg/kg/injection, schedule: Q01DX Z (ip), vehicle: methylcellulose (MC) 109 % of control | dose: 73.0 mg/kg/injection, schedule: Q01DX Z (ip), vehicle: methylcellulose (MC) 107 % of control | dose: 112.0 mg/kg/injection, schedule: Q01DX Z (ip), vehicle: methylcellulose (MC) 101 % of control | dose: 168.0 mg/kg/injection, schedule: Q01DX Z (ip), vehicle: methylcellulose (MC) 101 % of control

COc1ccc(-c2ccc(OC)cc2[N+](=O)[O-])c([N+](=O)[O-])c1
inactive: dose: 100.0 mg/kg/injection, schedule: Q01DX001 (ip), vehicle: carboxymethylcellulose (CMC) 100 % of control | dose: 200.0 mg/kg/injection, schedule: Q01DX001 (ip), vehicle: carboxymethylcellulose (CMC) 100 % of control | dose: 400.0 mg/kg/injection, schedule: Q01DX001 (ip), vehicle: carboxymethylcellulose (CMC) 102 % of control

CC(=O)/C(C)=C/c1ccccc1
inactive: dose: 100.0 mg/kg/injection, schedule: Q01DX001 (ip), vehicle: other 107 % of control | [1] 100 % of control | dose: 200.0 mg/kg/injection, schedule: Q01DX001 (ip), vehicle: other 96 % of control | [2] 105 % of control | dose: 400.0 mg/kg/injection, schedule: Q01DX001 (ip), vehicle: other 91 % of control | [3] 100 % of control

CC(=O)NCC[N+](C)(C)C
inactive: dose: 25.0 mg/kg/injection, schedule: Q01DX009 (ip), vehicle: saline 100 % of control | dose: 25.0 mg/kg/injection, schedule: Q04DX003 (ip), vehicle: saline 97 % of control | dose: 50.0 mg/kg/injection, schedule: Q01DX009 (ip), vehicle: saline 100 % of control | dose: 50.0 mg/kg/injection, schedule: Q04DX003 (ip), vehicle: saline 95 % of control | dose: 100.0 mg/kg/injection, schedule: Q01DX009 (ip), vehicle: saline 105 % of control | dose: 100.0 mg/kg/injection, schedule: Q04DX003 (ip), vehicle: saline 95 % of control

CCCCCNc1ccc(C(=O)O)cc1
inactive: dose: 37.5 mg/kg/injection, schedule: Q01DX009 (ip), vehicle: saline 100 % of control | dose: 75.0 mg/kg/injection, schedule: Q01DX001 (ip), vehicle: acetone 88 % of control | dose: 75.0 mg/kg/injection, schedule: Q01DX009 (ip), vehicle: saline 95 % of control | dose: 75.0 mg/kg/injection, schedule: Q04DX003 (ip), vehicle: saline 100 % of control | dose: 150.0 mg/kg/injection, schedule: Q01DX001 (ip), vehicle: acetone 96 % of control | dose: 150.0 mg/kg/injection, schedule: Q01DX009 (ip), vehicle: saline 92 % of control | dose: 150.0 mg/kg/injection, schedule: Q04DX003 (ip), vehicle: saline 97 % of control | dose: 300.0 mg/kg/injection, schedule: Q01DX001 (ip), vehicle: acetone 102 % of control | dose: 300.0 mg/kg/injection, schedule: Q04DX003 (ip), vehicle: saline 97 % of control

Nc1nc(N)c2cc(CNc3ccc(C(=O)NC(CCCC(=O)O)C(=O)O)cc3)cnc2n1 (stereo not drawn)
inactive: [3] 87 % of control
active: [1] 158 % of control and 175 % of control | [2] 154 % of control
